Measurements: US10111428B2, “Nematocide containing lactonic ring and preparation method and application thereof” (priority 2015, dated 2018)
≈ marks a conversion by molar mass, not a printed value. Like-named read-outs stand apart in the source and are kept apart here.

Tests used:
[1] = system: Earthworm; assay: Earthworm toxicity test (Test Guidelines on Environmental Safety Assessment for Chemical Pesticides); type: in vivo; conditions: cell adds 'low toxicity'
Method: (§1) According to the earthworm and edaphon toxicity test procedures as prescribed in the Test Guidelines on Environmental Safety Assessment for Chemical Pesticides, earthworm and edaphon toxicity tests are conducted on compounds 1 to 60 from Table 1. The simulative usual dose of pesticide in the edaphon test is 40 ppm.

[2] = system: Edaphon; assay: Edaphon toxicity test (Test Guidelines on Environmental Safety Assessment for Chemical Pesticides)
Method: as §1

[3] = system: Nematode eggs; assay: Plant pathogenic nematode inhibition test by dipping: nematode egg hatch inhibition (NY/T 1154.5-2006); type: in vivo
Method: A plant pathogenic nematode inhibition test is conducted by dipping with the compounds in Table 1; and by referring to NY/T 1154.5-2006 (Part 5: Dipping Test for Insecticide Ovicidal Activity), the nematode egg hatch inhibition activity of the compounds is tested, as shown in Table 2: […]

[4] = system: Nematode J2; assay: Plant pathogenic nematode inhibition test by dipping: second-stage juveniles; type: in vivo
[5] = 15 d, 100 times of usual dose (simulative usual dose 40 ppm), cell adds 'low toxicity'
[6] = Test object: nematode eggs, dipping
[7] = Test object: nematode J2 (second-stage juveniles), dipping

Structure (SMILES) | Earthworm Toxicity LC50 (14 d) [1] | Edaphon Toxicity (15 d) (Inhibition ratio when added amount is 100 times of usual dose) [2, 5] | LC50 [3, 6] | LC50 [4, 7] | Edaphon Toxicity (15 d) (Inhibition ratio when added amount is 100 times of usual dose) [2] | LC50 ([3]; in vivo) | LC50 ([4]; in vivo)
O=C1CC(C(=O)OCCC(F)=C(F)F)C(c2cc(F)cc(Cl)c2)O1 (stereo not shown) [Compound 24] | >10, low toxicity mg/L | <50%, low toxicity | 10.91 µg/mL (≈ 29.8 µM) | 12.24 µg/mL (≈ 33.4 µM) |  |  | 
O=C1CC(C(=O)OCCC(F)=C(F)F)C(c2ccc(Br)cc2F)O1 (stereo not shown) [Compound 25] | >10, low toxicity mg/L | <50%, low toxicity | 13.91 µg/mL (≈ 33.8 µM) | 15.74 µg/mL (≈ 38.3 µM) |  |  | 
O=C1CC(C(=O)OCCC(F)=C(F)F)C(c2cccc(F)c2)O1 (stereo not shown) [Compound 27] | >10, low toxicity mg/L |  | 7.85 µg/mL (≈ 23.6 µM) | 8.91 µg/mL (≈ 26.8 µM) | <50%, low toxicity |  | 
O=C1CC(C(=O)OCCC(F)=C(F)F)C(c2cc(F)ccc2F)O1 (stereo not shown) [Compound 28] | >10, low toxicity mg/L | <50%, low toxicity |  |  |  | 13.23 µg/mL (≈ 37.8 µM) | 15.07 µg/mL (≈ 43 µM)
O=C1CC(C(=O)OCCC(F)=C(F)F)C(c2c(F)c(F)c(F)c(F)c2F)O1 (stereo not shown) [Compound 29] | >10, low toxicity mg/L | <50%, low toxicity |  |  |  | 12.24 µg/mL (≈ 30.3 µM) | 13.86 µg/mL (≈ 34.3 µM)
O=C1CC(C(=O)OCCC(F)=C(F)F)C(c2cc(F)c(F)c(F)c2)O1 (stereo not shown) [Compound 30] | >10, low toxicity mg/L | <50%, low toxicity |  |  |  | 9.73 µg/mL (≈ 26.4 µM) | 10.96 µg/mL (≈ 29.8 µM)
O=C1CC(C(=O)OCCC(F)=C(F)F)C(c2c(F)cccc2C(F)(F)F)O1 (stereo not shown) [Compound 31] | >10, low toxicity mg/L | <50%, low toxicity |  |  |  | 9.60 µg/mL (≈ 24 µM) | 10.07 µg/mL (≈ 25.2 µM)
O=C1CC(C(=O)OCCC(F)=C(F)F)C(c2ccc(C(F)(F)F)cc2F)O1 (stereo not shown) [Compound 32] | >10, low toxicity mg/L | <50%, low toxicity |  |  |  | 12.14 µg/mL (≈ 30.3 µM) | 13.23 µg/mL (≈ 33.1 µM)
COc1c(F)cc(C2OC(=O)CC2C(=O)OCCC(F)=C(F)F)cc1F (stereo not shown) [Compound 33] | >10, low toxicity mg/L | <50%, low toxicity |  |  |  | 12.08 µg/mL (≈ 31.8 µM) | 13.37 µg/mL (≈ 35.2 µM)
COc1ccccc1C1OC(=O)CC1C(=O)OCCC=C(F)F (stereo not shown) [Compound 34] | >10, low toxicity mg/L | <50%, low toxicity | 12.42 µg/mL (≈ 38.1 µM) | 13.10 µg/mL (≈ 40.1 µM) |  |  | 
COc1ccccc1C1OC(=O)CC1C(=O)OCCC(F)=C(F)F (stereo not shown) [Compound 35] | >10, low toxicity mg/L | <50%, low toxicity |  |  |  | 10.84 µg/mL (≈ 31.5 µM) | 11.67 µg/mL (≈ 33.9 µM)
COc1cccc(C2OC(=O)CC2C(=O)OCCC=C(F)F)c1 (stereo not shown) [Compound 36] | >10, low toxicity mg/L | <50%, low toxicity |  |  |  | 11.24 µg/mL (≈ 34.4 µM) | 12.64 µg/mL (≈ 38.7 µM)
COc1cccc(C2OC(=O)CC2C(=O)OCCC(F)=C(F)F)c1 (stereo not shown) [Compound 37] | >10, low toxicity mg/L | <50%, low toxicity |  |  |  | 12.84 µg/mL (≈ 37.3 µM) | 13.67 µg/mL (≈ 39.7 µM)
COc1ccc(C2OC(=O)CC2C(=O)OCCC=C(F)F)cc1 (stereo not shown) [Compound 38] | >10, low toxicity mg/L | <50%, low toxicity |  |  |  | 12.14 µg/mL (≈ 37.2 µM) | 13.40 µg/mL (≈ 41.1 µM)
COc1ccc(C2OC(=O)CC2C(=O)OCCC(F)=C(F)F)cc1 (stereo not shown) [Compound 39] | >10, low toxicity mg/L | <50%, low toxicity |  |  |  | 11.85 µg/mL (≈ 34.4 µM) | 13.40 µg/mL (≈ 38.9 µM)
O=C1CC(C(=O)OCCC=C(F)F)C(c2ccccc2OC(F)(F)F)O1 (stereo not shown) [Compound 40] | >10, low toxicity mg/L | <50%, low toxicity |  |  |  | 10.04 µg/mL (≈ 26.4 µM) | 13.40 µg/mL (≈ 35.2 µM)
O=C1CC(C(=O)OCCC(F)=C(F)F)C(c2ccccc2OC(F)(F)F)O1 (stereo not shown) [Compound 41] | >10, low toxicity mg/L | <50%, low toxicity |  |  |  | 11.41 µg/mL (≈ 28.6 µM) | 13.86 µg/mL (≈ 34.8 µM)
COc1ccc(C2OC(=O)CC2C(=O)OCCC(F)=C(F)F)c(C(F)(F)F)c1 (stereo not shown) [Compound 42] | >10, low toxicity mg/L | <50%, low toxicity |  |  |  | 12.39 µg/mL (≈ 30.1 µM) | 10.40 µg/mL (≈ 25.2 µM)
CCOc1ccccc1C1OC(=O)CC1C(=O)OCCC(F)=C(F)F (stereo not shown) [Compound 43] | >10, low toxicity mg/L | <50%, low toxicity |  |  |  | 11.98 µg/mL (≈ 33.4 µM) | 13.35 µg/mL (≈ 37.3 µM)
CCOc1ccc(C2OC(=O)CC2C(=O)OCCC(F)=C(F)F)cc1 (stereo not shown) [Compound 44] | >10, low toxicity mg/L | <50%, low toxicity |  |  |  | 10.23 µg/mL (≈ 28.6 µM) | 13.12 µg/mL (≈ 36.6 µM)
O=C1CC(C(=O)OCCC=C(F)F)C(c2ccccc2C(F)(F)F)O1 (stereo not shown) [Compound 45] | >10, low toxicity mg/L | <50%, low toxicity |  |  |  | 10.14 µg/mL (≈ 27.8 µM) | 12.35 µg/mL (≈ 33.9 µM)
O=C1CC(C(=O)OCCC(F)=C(F)F)C(c2ccccc2C(F)(F)F)O1 (stereo not shown) [Compound 46] | >10, low toxicity mg/L | <50%, low toxicity |  |  |  | 9.98 µg/mL (≈ 26.1 µM) | 11.24 µg/mL (≈ 29.4 µM)
O=C1CC(C(=O)OCCC=C(F)F)C(c2cc(C(F)(F)F)cc(C(F)(F)F)c2)O1 (stereo not shown) [Compound 47] | >10, low toxicity mg/L | <50%, low toxicity |  |  |  | 11.41 µg/mL (≈ 26.4 µM) | 12.24 µg/mL (≈ 28.3 µM)
O=C1CC(C(=O)OCCC(F)=C(F)F)C(c2cc(C(F)(F)F)cc(C(F)(F)F)c2)O1 (stereo not shown) [Compound 48] | >10, low toxicity mg/L | <50%, low toxicity |  |  |  | 12.25 µg/mL (≈ 27.2 µM) | 13.27 µg/mL (≈ 29.5 µM)
N#Cc1ccc(C2OC(=O)CC2C(=O)OCCC(F)=C(F)F)cc1 (stereo not shown) [Compound 49] | >10, low toxicity mg/L | <50%, low toxicity |  |  |  | 10.36 µg/mL (≈ 30.5 µM) | 11.35 µg/mL (≈ 33.5 µM)
O=C1CC(C(=O)OCCC(F)=C(F)F)C(c2cccc(Oc3cccc(C(F)(F)F)c3)c2)O1 (stereo not shown) [Compound 52] | >10, low toxicity mg/L | <50%, low toxicity |  |  |  | 10.12 µg/mL (≈ 21.3 µM) | 13.28 µg/mL (≈ 28 µM)
Cc1ccc(Oc2ccccc2C2OC(=O)CC2C(=O)OCCC(F)=C(F)F)cc1 (stereo not shown) [Compound 53] | >10, low toxicity mg/L | <50%, low toxicity |  |  |  | 8.98 µg/mL (≈ 21.4 µM) | 12.35 µg/mL (≈ 29.4 µM)
O=C1CC(C(=O)OCCC(F)=C(F)F)C(c2ccc(Oc3ccc(Cl)cc3)cc2)O1 (stereo not shown) [Compound 54] | >10, low toxicity mg/L | <50%, low toxicity |  |  |  | 12.40 µg/mL (≈ 28.1 µM) | 14.16 µg/mL (≈ 32.1 µM)
